Reference: US20240287071A1, “CLASS OF IMIDAZOLIDINOPYRIMIDONE COMPOUNDS AND USE THEREOF IN TREATMENT OF HSCLPP-MEDIATED DISEASES” (SICHUAN UNIVERSITY, priority 2021, published 2024)
Read-outs that look alike come from different tables or passages of the source.

Columns and labels:
HCT116 = test: CCK-8 in vitro anti-tumor proliferation assay; assay type: cell-based; conditions: Homo sapiens, HCT-116, 72 hours
Method: (§1) Example 3: In vitro anti-tumor proliferation assay of the compounds. The purpose of this experiment was to use CCK-8 to detect the in vitro inhibitory activity of the compounds of the present invention against the proliferation of tumor cells. The main reagents, such as RPMI-1640, DMEM high-glucose culture medium, fetal bovine serum, trypsin, etc., were purchased from Gibco BRL. CCK8 and DMSO were products of Sigma. For in vitro experiment, the test compounds were prepared as 10 mM stock solutions in DMSO and stored at −20° C. in the refrigerator in the dark for later use, then diluted to desired concentration with complete culture medium before use. The human lung cancer cells, colon cancer cells, breast cancer cells, glioblastoma cells, human myelomonocytic leukemia cells, and human Burkitt's lymphoma cells used in this experiment were all purchased from the American ATCC company and preserved in laboratory of the inventors. All the above cell lines were cultured in RPMI-1640 complete medium or DMEM complete medium containing 10% fetal bovine serum, 100 U/mL penicillin, and 100 μg/mL streptomycin under 5% carbon dioxide, 37° C. conditions. […] The previous culture medium was discarded, fresh culture medium was added to resuspend the cells, and then the cells were counted. According to the growth rate of different cells, the cell seeding concentration was determined, generally being 3000-5000 cells/well. After determining the seeding concentration, the cell suspension was diluted to desired concentrations with fresh culture medium, and then added to a 96-well plate with 100 μL per well, and 200 μL of PBS was added to the edge wells to prevent evaporation of the culture medium. On the second day, drug treatment was performed. First, the compounds were diluted into a series of gradients with culture medium, and then the drug solution was added to the 96-well plate, with 3 parallel wells for each gradient. Each plate set a blank control group, and ONC201 was used as the positive control group.

HsClpP = HsClpP (Homo sapiens, UniProt Q16740); test: HsClpP enzyme hydrolysis of short peptide substrate AC-WLA-AMC; conditions: for Regulatory efficacy 1 μM / Regulatory efficacy 10 μM: promoting hydrolysis of short peptide substrate by HsClpP, relative to blank control
HsClpP, sequence (Q16740 57-277): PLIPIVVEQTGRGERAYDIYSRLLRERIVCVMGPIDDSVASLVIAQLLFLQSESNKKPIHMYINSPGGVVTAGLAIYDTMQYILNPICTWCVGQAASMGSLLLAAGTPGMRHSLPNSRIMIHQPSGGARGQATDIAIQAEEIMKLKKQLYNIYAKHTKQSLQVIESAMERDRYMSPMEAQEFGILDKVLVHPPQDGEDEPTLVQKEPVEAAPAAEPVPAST
Method: This study evaluated the regulatory activity of the compounds on HsClpP by examining the hydrolysis effects of HsClpP protein on the AC-WLA-AMC substrate . […] The small molecules and the HsClpP protein solution were added to a flat-bottomed black 96-well plate, with three replicate wells for each group. […] DMSO was used as a negative control instead of small molecules. The multiple of readings at different concentrations against the readings of DMSO group was recorded as an index for evaluation of hydrolysis activity. . . . GraphPad Prism was used to plot the obtained multiple values and calculate the EC50 values.

DLD1 = test: CCK-8 in vitro anti-tumor proliferation assay; assay type: cell-based; conditions: Homo sapiens, DLD-1, 72 hours
Method: as §1

HCT115 = test: CCK-8 in vitro anti-tumor proliferation assay; assay type: cell-based; conditions: Homo sapiens; Table 4; 72 hours
Method: as §1

HT29 = test: CCK-8 in vitro anti-tumor proliferation assay; assay type: cell-based; conditions: Homo sapiens, HT-29; Table 4; 72 hours
Method: as §1

SW480 = test: CCK-8 in vitro anti-tumor proliferation assay; assay type: cell-based; conditions: Homo sapiens, Table 4, 72 hours
Method: as §1

SW620 = test: CCK-8 in vitro anti-tumor proliferation assay; assay type: cell-based; conditions: Homo sapiens, SW-620, 72 hours
Method: as §1

A172 = test: CCK-8 in vitro anti-tumor proliferation assay; assay type: cell-based; conditions: Homo sapiens, A 172; Table 3; 72 hours
Method: as §1

A549 = test: CCK-8 in vitro anti-tumor proliferation assay; assay type: cell-based; conditions: Homo sapiens, A549; Table 3; 72 hours; read-out: IC50(uM) A549
Method: as §1

MV-4-11 = test: CCK-8 in vitro anti-tumor proliferation assay; assay type: cell-based; conditions: Homo sapiens, MV4-11; Table 3; 72 hours; read-out: IC50(uM) MV-4-11
Method: as §1

Raji = test: CCK-8 in vitro anti-tumor proliferation assay; assay type: cell-based; conditions: Homo sapiens, Table 3, 72 hours, read-out: IC50(uM) Raji
Method: as §1

[1] = Table 5, HCT116, read-out: IC50
[2] = Table 4, read-out: IC50 ( M) DLD1
[3] = Table 4, read-out: IC50 ( M) HCT116
[4] = Table 4, read-out: IC50 ( M) SW620

SMILES	IC50 (HCT116; [1])	Regulatory efficacy 1 μM (HsClpP)	Regulatory efficacy 10 μM (HsClpP)	also measured
CN1CCn2c1nc(=O)c1c2CCN(Cc2ccccc2)C1 [Compound 2, 7-benzyl-3-methyl-2,3,6,7,8,9-hexahydroimidazo[1,2-a]pyrido[3,4-e]pyrimidin-5(1H)-one]	> 1e-05 M	+ (+ indicating that the increased efficacy is less than 50% of the blank control group)	+ (+ indicating that the increased efficacy is less than 50% of the blank control group)	
O=c1nc2n(c3c1CN(Cc1ccccc1)CC3)CCN2CC1CC1 [Compound 5, 7-benzyl-3-cyclopropylmethyl-2,3,6,7,8,9-hexahydroimidazo[1,2-a]pyrido[3,4-e]pyrimidin-5(1H)-one]	> 1e-05 M	+ (+ indicating that the increased efficacy is less than 50% of the blank control group)	+ +	
O=c1nc2n(c3c1CN(Cc1ccccc1)CC3)CCN2CC1CCCCC1 [Compound 6, 7-benzyl-3-cyclohexylmethyl-2,3,6,7,8,9-hexahydroimidazo[1,2-a]pyrido[3,4-e]pyrimidin-5(1H)-one]	2.5e-06 M	+ +	+ +	
O=c1nc2n(c3c1CN(Cc1ccccc1)CC3)CCN2Cc1ccccc1 [Compound 7, 7-benzyl-3-benzyl-2,3,6,7,8,9-hexahydroimidazo[1,2-a]pyrido[3,4-e]pyrimidin-5(1H)-one]	5e-07 M	+ +	+ +	
O=c1nc2n(c3c1CN(Cc1ccccc1)CC3)CCN2Cc1ccc2ccccc2c1 [Compound 8, 7-benzyl-3-(2-naphthylmethyl)-2,3,6,7,8,9-hexahydroimidazo[1,2-a]pyrido[3,4-e]pyrimidin-5(1H)-one]	3e-07 M	+ +	+ +	
Cc1cccc(CN2CCn3c2nc(=O)c2c3CCN(Cc3ccccc3)C2)c1 [Compound 11, 7-benzyl-3-(3-methylbenzyl)-2,3,6,7,8,9-hexahydroimidazo[1,2-a]pyrido[3,4-e]pyrimidin-5(1H)-one]	3e-07 M	+ +	+ +	
Cc1ccc(CN2CCn3c2nc(=O)c2c3CCN(Cc3ccccc3)C2)cc1 [Compound 12, 7-benzyl-3-(4-methylbenzyl)-2,3,6,7,8,9-hexahydroimidazo[1,2-a]pyrido[3,4-e]pyrimidin-5(1H)-one]	2e-07 M	+ +	+ +	
COc1ccccc1CN1CCn2c1nc(=O)c1c2CCN(Cc2ccccc2)C1 [Compound 13, 7-benzyl-3-(2-methoxybenzyl)-2,3,6,7,8,9-hexahydroimidazo[1,2-a]pyrido[3,4-e]pyrimidin-5(1H)-one]	1.3e-06 M	+ +	+ +	
COc1ccc(CN2CCn3c2nc(=O)c2c3CCN(Cc3ccccc3)C2)cc1 [Compound 14, 7-benzyl-3-(4-methoxybenzyl)-2,3,6,7,8,9-hexahydroimidazo[1,2-a]pyrido[3,4-e]pyrimidin-5(1H)-one]	1.2e-06 M	+ +	+ +	
O=c1nc2n(c3c1CN(Cc1ccccc1)CC3)CCN2Cc1ccc(F)cc1 [Compound 15, 7-benzyl-3-(4-fluorobenzyl)-2,3,6,7,8,9-hexahydroimidazo[1,2-a]pyrido[3,4-e]pyrimidin-5(1H)-one]	8e-08 M	+ +	+ +	IC50 (DLD1; [2]): 9e-08 M; IC50 (HCT115): 200 nM; IC50 (HCT116; [3]): 8e-08 M; IC50 (HT29): 400 nM; IC50 (SW480): 170 nM; IC50 (SW620; [4]): 1.9e-07 M; EC50 (HsClpP): 100 nM
O=c1nc2n(c3c1CN(Cc1ccccc1)CC3)CCN2Cc1ccc(Cl)cc1 [Compound 16, 7-benzyl-3-(4-chlorobenzyl)-2,3,6,7,8,9-hexahydroimidazo[1,2-a]pyrido[3,4-e]pyrimidin-5(1H)-one]	8e-08 M	+ +	+ +	IC50 (DLD1; [2]): 1e-07 M; IC50 (HCT115): 250 nM; IC50 (HCT116; [3]): 8e-08 M; IC50 (HT29): 70 nM; IC50 (SW480): 100 nM; IC50 (SW620; [4]): 1.7e-07 M
O=c1nc2n(c3c1CN(Cc1ccccc1)CC3)CCN2Cc1ccc(Br)cc1 [Compound 17, 7-benzyl-3-(4-bromobenzyl)-2,3,6,7,8,9-hexahydroimidazo[1,2-a]pyrido[3,4-e]pyrimidin-5(1H)-one]	5e-07 M	+ +	+ +	
O=c1nc2n(c3c1CN(Cc1ccccc1)CC3)CCN2Cc1ccc(C(F)(F)F)cc1 [Compound 18, 7-benzyl-3-(4-trifluoromethylbenzyl)-2,3,6,7,8,9-hexahydroimidazo[1,2-a]pyrido[3,4-e]pyrimidin-5(1H)-one]	3e-07 M	+ +	+ +	IC50 (A172): 0.2 µM; IC50 (A549): 0.2 µM; IC50 (DLD1; Table 3, read-out: IC50(uM) DLD1): 1.5e-07 M; IC50 (MV-4-11): 0.05 µM; IC50 (Raji): 0.1 µM; IC50 (SW620; Table 3, read-out: IC50(uM) SW620): 5e-07 M; EC50 (HsClpP): 300 nM
O=c1nc2n(c3c1CN(Cc1ccccc1)CC3)CCN2Cc1ccc(Br)c(F)c1 [Compound 22, 7-benzyl-3-(4-bromo-3-fluorobenzyl)-2,3,6,7,8,9-hexahydroimidazo[1,2-a]pyrido[3,4-e]pyrimidin-5 (1H)-one]	8e-08 M	+ +	+ +	
O=c1nc2n(c3c1CN(Cc1ccccc1)CC3)CCN2Cc1ccc(Cl)c(Cl)c1 [Compound 26, 7-benzyl-3-(3,4-dichlorobenzyl)-2,3,6,7,8,9-hexahydroimidazo[1,2-a]pyrido[3,4-e]pyrimidin-5(1H)-one]	3e-08 M	+ +	+ +	
CCN1CCc2c(c(=O)nc3n2CCN3Cc2ccccc2C)C1 [Compound 28, 7-ethyl-3-(2-methylbenzyl)-2,3,6,7,8,9-hexahydroimidazo[1,2-a]pyrido[3,4-e]pyrimidin-5(1H)-one]	> 1e-05 M	+ (+ indicating that the increased efficacy is less than 50% of the blank control group)	+ (+ indicating that the increased efficacy is less than 50% of the blank control group)	
Cc1cccc(CN2CCc3c(c(=O)nc4n3CCN4Cc3ccccc3C)C2)c1 [Compound 32, 3-(2-methylbenzyl)-7-(3-methylbenzyl)-2,3,6,7,8,9-hexahydroimidazo[1,2-a]pyrido[3,4-e]pyrimidin-5(1H)-one]	1.5e-06 M	+ +	+ +	
Cc1ccccc1CN1CCn2c1nc(=O)c1c2CCN(Cc2cccc(C#N)c2)C1 [Compound 35, 3-((3-(2-methylbenzyl)-5-oxo-2,3,6,7,8,9-hexahydroimidazo[1,2-a]pyrido[3,4-e]pyrimidin-7(6H)-yl)methyl)benzonitrile]	5e-07 M	+ +	+ +	
Cc1ccccc1CN1CCn2c1nc(=O)c1c2CCN(C(=O)c2ccccc2)C1 [Compound 39, 7-benzoyl-3-(2-methylbenzyl)-2,3,6,7,8,9-hexahydroimidazo[1,2-a]pyrido[3,4-e]pyrimidin-5(1H)-one]	> 1e-05 M	+ (+ indicating that the increased efficacy is less than 50% of the blank control group)	+ (+ indicating that the increased efficacy is less than 50% of the blank control group)	
